Tests used:
Salmonella typhimurium = assay: Antimicrobial activity against Salmonella enterica subsp. enterica serovar Typhimurium assessed as growth inhibition by microdilution method
Aspergillus flavus = assay: Antimicrobial activity against Aspergillus flavus assessed as growth inhibition by microdilution method; format: functional
Alternaria alternata = assay: Antimicrobial activity against Alternaria alternata assessed as growth inhibition by microdilution method; format: functional
Streptococcus pyogenes = assay: Antimicrobial activity against Streptococcus pyogenes assessed as growth inhibition by microdilution method
Staphylococcus aureus = assay: Antimicrobial activity against Staphylococcus aureus assessed as growth inhibition by microdilution method
Bacillus subtilis = assay: Antimicrobial activity against Bacillus subtilis assessed as growth inhibition by microdilution method
Klebsiella aerogenes = assay: Antimicrobial activity against Enterobacter aerogenes assessed as growth inhibition by microdilution method
Aspergillus niger = assay: Antimicrobial activity against Aspergillus niger assessed as growth inhibition by microdilution method; format: functional
Curvularia australiensis = assay: Antimicrobial activity against Curvularia australiensis assessed as growth inhibition by microdilution method; format: functional
Escherichia coli = assay: Antimicrobial activity against Escherichia coli assessed as growth inhibition by microdilution method
Trichoderma reesei = assay: Antimicrobial activity against Trichoderma reesei assessed as growth inhibition by microdilution method; format: functional

| Structure (SMILES) | MIC (Salmonella typhimurium) | MIC (Aspergillus flavus) | MIC (Alternaria alternata) | MIC (Streptococcus pyogenes) | MIC (Staphylococcus aureus) | MIC (Bacillus subtilis) | MIC (Klebsiella aerogenes) | MIC (Aspergillus niger) | MIC (Curvularia australiensis) | MIC (Escherichia coli) | MIC (Trichoderma reesei) |
| --- | --- | --- | --- | --- | --- | --- | --- | --- | --- | --- | --- |
| Cc1ccc(NC2=NN=Cc3cc4cc(C)ccc4nc3S2)cc1 | 60 mg/L | 1000 mg/L | 500 mg/L | 1000 mg/L | > 1000 mg/L | 1000 mg/L | 60 mg/L | 1000 mg/L | 1000 mg/L | 1000 mg/L | 500 mg/L |
| Cc1cccc2cc3c(nc12)SC(NCc1ccccc1)=NN=C3 | > 1000 mg/L | 1000 mg/L | 1000 mg/L | > 1000 mg/L | > 1000 mg/L | > 1000 mg/L | 1000 mg/L | 500 mg/L | 1000 mg/L | > 1000 mg/L | 1000 mg/L |
| COc1ccc2nc3c(cc2c1)C=NN=C(Nc1ccc(C)cc1C)S3 | 500 mg/L | 1000 mg/L | 250 mg/L | 1000 mg/L | 1000 mg/L | 1000 mg/L | 1000 mg/L | 1000 mg/L | 500 mg/L | 500 mg/L | 500 mg/L |
| COc1ccc2nc3c(cc2c1)C=NN=C(Nc1ccc(Cl)cc1)S3 | 1000 mg/L | 500 mg/L | 30 mg/L | 500 mg/L | 500 mg/L | 60 mg/L | 500 mg/L | 500 mg/L | 500 mg/L | 250 mg/L | 250 mg/L |
| COc1ccc2nc3c(cc2c1)C=NN=C(Nc1ccccc1C)S3 | 125 mg/L | 500 mg/L | 1000 mg/L | 1000 mg/L | 1000 mg/L | 1000 mg/L | 1000 mg/L | 1000 mg/L | 1000 mg/L | 500 mg/L | 500 mg/L |
| COc1ccc2nc3c(cc2c1)C=NN=C(Nc1ccccc1)S3 | 60 mg/L | 500 mg/L | 500 mg/L | 60 mg/L | 500 mg/L | 500 mg/L | 125 mg/L | 500 mg/L | 500 mg/L | 500 mg/L | 1000 mg/L |
| Cc1ccc(NC2=NN=Cc3cc4ccc(Cl)c(C)c4nc3S2)cc1 | 500 mg/L | 1000 mg/L | 500 mg/L | 250 mg/L | 500 mg/L | 125 mg/L | 500 mg/L | 1000 mg/L | 1000 mg/L | 250 mg/L | 250 mg/L |
| Cc1cccc2cc3c(nc12)SC(Nc1cccc(Cl)c1)=NN=C3 | 1000 mg/L | 1000 mg/L | 500 mg/L | 1000 mg/L | 1000 mg/L | 1000 mg/L | 1000 mg/L | 500 mg/L | 1000 mg/L | 1000 mg/L | 1000 mg/L |
| Cc1cccc(C)c1NC1=NN=Cc2cc3ccc(Cl)c(C)c3nc2S1 | 1000 mg/L | 500 mg/L | 125 mg/L | 60 mg/L | 500 mg/L | 60 mg/L | 500 mg/L | 500 mg/L | 500 mg/L | 125 mg/L | 250 mg/L |
| Cc1ccc(NC2=NN=Cc3cc4cccc(C)c4nc3S2)cc1 | 1000 mg/L | 500 mg/L | 1000 mg/L | 1000 mg/L | 1000 mg/L | 1000 mg/L | 1000 mg/L | 1000 mg/L | 1000 mg/L | 1000 mg/L | 500 mg/L |
| Cc1c(Cl)ccc2cc3c(nc12)SC(NCCN1CCOCC1)=NN=C3 | 125 mg/L | 1000 mg/L | 1000 mg/L | 250 mg/L | 250 mg/L | 250 mg/L | 250 mg/L | 1000 mg/L | 1000 mg/L | 500 mg/L | 1000 mg/L |
| CCc1ccc(NC2=NN=Cc3cc4cc(OC)ccc4nc3S2)cc1 | 500 mg/L | 500 mg/L | 500 mg/L | 500 mg/L | 500 mg/L | 500 mg/L | 500 mg/L | 500 mg/L | 1000 mg/L | 500 mg/L | 500 mg/L |
| Cc1ccc2nc3c(cc2c1)C=NN=C(Nc1ccccc1C)S3 | 1000 mg/L | 125 mg/L | 1000 mg/L | 500 mg/L | 500 mg/L | 500 mg/L | 500 mg/L | 250 mg/L | 1000 mg/L | 1000 mg/L | 125 mg/L |
| Cc1c(Cl)ccc2cc3c(nc12)SC(Nc1ccccc1F)=NN=C3 | 500 mg/L | 500 mg/L | 500 mg/L | 60 mg/L | 500 mg/L | 60 mg/L | 500 mg/L | 500 mg/L | 1000 mg/L | 500 mg/L | 250 mg/L |
| Cc1ccc2nc3c(cc2c1)C=NN=C(NCCN1CCOCC1)S3 | 1000 mg/L | 500 mg/L | 500 mg/L | > 1000 mg/L | 1000 mg/L | > 1000 mg/L | 1000 mg/L | 500 mg/L | 500 mg/L | 500 mg/L | 250 mg/L |
| COc1ccc2nc3c(cc2c1)C=NN=C(NCc1ccccc1)S3 | 500 mg/L | 1000 mg/L | 1000 mg/L | 1000 mg/L | 1000 mg/L | 1000 mg/L | 125 mg/L | 1000 mg/L | 1000 mg/L | 1000 mg/L | 500 mg/L |
| Cc1ccc2nc3c(cc2c1)C=NN=C(Nc1ccc(F)cc1)S3 | 250 mg/L | > 1000 mg/L | 1000 mg/L | 500 mg/L | 250 mg/L | 250 mg/L | 125 mg/L | 1000 mg/L | > 1000 mg/L | 500 mg/L | 1000 mg/L |
| Cc1ccc(NC2=NN=Cc3cc4ccc(Cl)c(C)c4nc3S2)c(C)c1 | 500 mg/L | 500 mg/L | 250 mg/L | 60 mg/L | 500 mg/L | 30 mg/L | 500 mg/L | 500 mg/L | 500 mg/L | 60 mg/L | 250 mg/L |
| Cc1c(Cl)ccc2cc3c(nc12)SC(Nc1ccccc1)=NN=C3 | > 1000 mg/L | 500 mg/L | 250 mg/L | 60 mg/L | > 1000 mg/L | 125 mg/L | 60 mg/L | 1000 mg/L | 1000 mg/L | 60 mg/L | 250 mg/L |
| COc1ccc2nc3c(cc2c1)C=NN=C(Nc1ccc(F)cc1)S3 | 250 mg/L | > 1000 mg/L | 60 mg/L | 500 mg/L | 500 mg/L | 500 mg/L | 60 mg/L | 1000 mg/L | 1000 mg/L | 500 mg/L | 500 mg/L |

Source: ChEMBL document CHEMBL3046732, “Synthesis and biological evaluation of new [1,3,4]thiadiazepino[7,6-b]quinolin-2-amines as potent anti-microbial agents” (2013)
